The assay relates to Delta strain of novel coronavirus. Type of assay: in vivo, K18-hACE2 transgenic mice.

This note sets out measurements from patent publication EP4623909A1, “PHARMACEUTICAL COMPOSITION FOR TREATING OR RELIEVING COVID-19 AND FORMULATION COMPRISING SAME” (priority 2022, dated 2024).

As to `N#C[C@@]1(c2ccc3c(N)ncnn23)O[C@H](COC(=O)C2CCCCC2)[C@@H](O)[C@H]1O` [ATV014], the “viral load in the lungs (antiviral effect)” value ([…], ATV014 100 mg/kg, Compound 1 150 mg/kg, once daily, intragastric, versus vehicle control) was “significant antiviral effects”. Besides, the “anti-novel coronavirus effects in the mouse model” value (conclusion, ATV014 100 mg/kg, Compound 1 150 mg/kg) is “significant anti-novel coronavirus effects”. Further, the “reduction of viral load” value (mouse, in vivo) is listed as “could reduce the viral load to varying degrees”.
